# Values joined by “and” are separate entries in the source; they are usually repeats but may differ in a detail not shown here. Equal values may be shown once. “Also recorded” adds a separate entry of the source. Read-outs that look alike come from different tables or passages of the source.
# Legend:
# EN = EN (Homo sapiens, UniProt O00370, N5T); assay type: biochemical
# APE1 [1] = molecular target: T1, APE1 (Homo sapiens, UniProt P27695); conditions: read-out: Ki for APE1; cited from earlier work
# T1 construct: purchased New England Biolabs (NEB) M0282S
# [2] = system: substrate oligonucleotide used in the EN activity assay; assay type: binding; set-up: key to Binding Detected? (Y/N): Binding Detected? (Y/N); Binding Detected? (Y/N)
# L1 retrotransposition = experiment: HeLa dual-luciferase L1 retrotransposition assay; assay type: cell-based, human; conditions: for L1 retrotransposition, average: average of 4 replicates, Figure 4b
# APE1 [3] = molecular target: T1, APE1; experiment: APE1 fluorescent oligonucleotide activity assay (abasic site substrate); assay type: biochemical; conditions: for activity at 25 µM: read-out: APE1 activity (%)
# [4] = molecular target: L1 EN (LINE-1 retrotransposon endonuclease domain) (Homo sapiens, UniProt O00370, N5T); experiment: Fluorescent oligonucleotide EN nicking activity assay; assay type: biochemical
# [5] = system: DNA fragmentation (comet tail length) in HeLa Tet-On cells expressing EN domain; experiment: Neutral comet assay, EN domain-only constructs; assay type: cell-based, human
# [6] = system: senescent LF1 human diploid fibroblasts (IL6, IL1β, CCL2, IFNα, MMP3); experiment: RT-qPCR of inflammatory markers in replicatively senescent fibroblasts; assay type: cell-based
# [7] = system: L1-induced DNA damage in HeLa Tet-On cells (full-length L1); experiment: γ-H2AX immunofluorescence assay, full-length L1 constructs; assay type: cell-based, human
# HeLa Tet-On cells = conditions: human
# [8] = system: senescent LF1 human diploid fibroblasts (IFN-I and Aging gene sets); experiment: RNA-seq / Gene Set Enrichment Analysis of senescent cultures; assay type: cell-based; conditions: senescent cultures treated 1 month beginning at 3 months senescence
# [9] = read-out: EN activity, percent of no inhibitor control
# Chain of L1 EN (LINE-1 retrotransposon endonuclease domain) (O00370 1-239 N5T): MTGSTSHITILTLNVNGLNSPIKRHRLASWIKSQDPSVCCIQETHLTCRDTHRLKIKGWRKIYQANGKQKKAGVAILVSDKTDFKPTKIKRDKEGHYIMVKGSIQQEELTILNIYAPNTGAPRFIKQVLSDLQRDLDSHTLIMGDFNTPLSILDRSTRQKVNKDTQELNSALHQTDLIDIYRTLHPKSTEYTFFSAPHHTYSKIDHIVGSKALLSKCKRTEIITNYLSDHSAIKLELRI
# Chain of EN (O00370 1-239 N5T): as above
smiles,measurement,setting,value
O=C(O)[C@H](CCCCNc1ccc([N+](=O)[O-])cc1[N+](=O)[O-])Nc1ccc([N+](=O)[O-])cc1[N+](=O)[O-] [AD2],Inhibition of EN activity in plasmid nicking assay,EN,full inhibition
same,Ki,APE1 [1],13 µM
same,Binding Detected? (Y/N),[2],N
same,Effect on L1 retrotransposition,L1 retrotransposition,did not significantly impact retrotransposition
same,APE1 activity (%),APE1 [3],96.2 ± 3.4%
same,"APE1 percent activity, Replicate 1",APE1 [3],98.5607%
same,"APE1 percent activity, Replicate 2",APE1 [3],92.3765%
same,"APE1 percent activity, Replicate 3",APE1 [3],97.7464%
same,"APE1 percent activity, average",APE1 [3],96.2279%
same,Effect on APE1 activity,APE1 [3],inhibited; also recorded: inhibition by the weak APE1 inhibitor AD2 was detected
same,"Percent APE1 activity, average",APE1 [3],66.36%
same,"Percent APE1 activity, replicates",APE1 [3],67.8305% and 52.9447% and 78.2943%
same,"EN activity, percent of no inhibitor control",[4]; 2 µM,97.2065% and 90.9835% and 64.2149%
same,"EN activity, percent of no inhibitor control",[4]; 10 µM,80.6222% and 62.0824% and 77.8942%
same,"EN activity, percent of no inhibitor control",[4]; 25 µM,84.9255% and 87.5391% and 75.5295%
same,"EN activity, percent of no inhibitor control",[4]; 50 µM,66.9257% and 62.5652% and 70.9549%
same,"EN activity, percent of no inhibitor control",[4]; 100 µM,54.3551% and 40.6401% and 45.1735%
same,"EN activity, percent of no inhibitor control",[4]; 500 µM,2.482% and 2.582%
same,"EN activity, percent of no inhibitor control",[4]; 1000 µM,-0.01768% and 1.001% and 0.6109%
same,"EN activity, percent of no inhibitor control",[4]; 2000 µM,-4.007% and -5.494% and -4.957%
C/C(C[C@H](c1ccccc1)c1c(O)c2ccccc2oc1=O)=N\Nc1ccc([N+](=O)[O-])cc1[N+](=O)[O-] [AD3],"Nuclei comet tail length, average (WT = 1)",[5],0.568
same,"IL1β RT-qPCR, average (EP = 1)",[6],4.703
same,"IL6 RT-qPCR, average (EP = 1)",[6],6.462
same,Inhibition of inflammation in senescent cells,[6],showed efficacy
same,"MMP3 RT-qPCR, average (EP = 1)",[6],2.136
same,Binding Detected? (Y/N),[2],N
same,"Luciferase (retrotransposition), average",L1 retrotransposition,1.378
same,"Luciferase (retrotransposition), replicates",L1 retrotransposition,0.9116 and 1.591 and 1.485 and 1.524
same,"APE1 percent activity, Replicate 1",APE1 [3],92.838%
same,"APE1 percent activity, Replicate 3",APE1 [3],104.006%
same,"APE1 percent activity, average",APE1 [3],103.516%
same,"Percent APE1 activity, average",APE1 [3],95.58%
same,"Percent APE1 activity, replicates",APE1 [3],101.896% and 94.978% and 89.8705%
same,activity at 25 µM,APE1 [3],104 ± 10.4%
same,"Inhibition of DNA damage, full-length L1 experiments",[7],best inhibition
same,"PrestoBlue (viability), average",HeLa Tet-On cells,15.41
same,"EN activity, percent of no inhibitor control",[4]; 1 µM,108.117% and 78.9256% and 93.3444%
same,"EN activity, percent of no inhibitor control",[4]; 5 µM,93.5701% and 96.3453%
same,"EN activity, percent of no inhibitor control",[4]; 10 µM,99.3729%
same,"EN activity, percent of no inhibitor control",[4]; 25 µM,99.0637% and 102.756%
same,"EN activity, percent of no inhibitor control",[4]; 50 µM,87.9685% and 80.8738% and 62.1552%
same,"EN activity, percent of no inhibitor control",[4]; 100 µM,53.1232% and 37.4643% and 59.5468%
same,"EN activity, percent of no inhibitor control",[4]; 250 µM,26.1232% and 25.9631%
same,"EN activity, percent of no inhibitor control",[4]; 500 µM,1.104% and 2.0558% and 4.103%
same,"EN activity, percent of no inhibitor control",[4]; 1000 µM,0.8695% and 0.8159%
same,remaining activity at 5 µM,[4]; [9],89.6%
same,remaining activity at 10 µM,[4]; [9],99.4%
same,remaining activity at 25 µM,[4]; [9],95.7%
same,remaining activity at 250 µM,[4]; [9],25.7%
same,remaining activity at 1000 µM,[4]; [9],1.63%
COc1ccc2c(c1)C(=O)N(CCc1ccc(S(=O)(=O)NC(=O)NC3CCCCC3)cc1)C(=O)C2(C)C [AD12],"Nuclei comet tail length, average (WT = 1)","[5]; 50 μM inhibitor, EN domain-only construct, neutral comet assay, normalised to WT",0.8544
same,"MMP3 RT-qPCR, average (EP = 1)","[6]; 50 μM, senescent cells, SEN control 5.499, 3 replicates",3.608
same,"IL1β RT-qPCR, average (EP = 1)","[6]; 50 μM, senescent cells, SEN control 8.256, 3 replicates",8.197
same,"CCL2 RT-qPCR, average (EP = 1)","[6]; 50 μM, senescent cells, SEN control 8.589, 3 replicates",4.591
same,"IFNα RT-qPCR, average (EP = 1)","[6]; 50 μM, senescent cells, SEN control 18.65, 3 replicates",8.607
same,"IL6 RT-qPCR, average (EP = 1)","[6]; 50 μM, senescent cells, SEN control 22.45, 3 replicates",8.334
same,Inhibition of inflammation in senescent cells,[6]; treated 1 month,showed efficacy
same,Binding Detected? (Y/N),[2],N
same,"L1 retrotransposition, average",L1 retrotransposition; 1 μM inhibitor,17.6477
same,"L1 retrotransposition, average",L1 retrotransposition; 5 μM inhibitor,10.1662
same,"L1 retrotransposition, average",L1 retrotransposition; 10 μM inhibitor,4.75
same,"L1 retrotransposition, average",L1 retrotransposition; 25 μM inhibitor,4.785
same,"L1 retrotransposition, average",L1 retrotransposition; 50 μM inhibitor,3.467
same,"L1 retrotransposition, average",L1 retrotransposition; 100 μM inhibitor,2.555
same,"Luciferase (retrotransposition), average","L1 retrotransposition; Figure 4a Graph 3, 50μM, 0μM average 17.91",3.467
same,"Luciferase (retrotransposition), replicates","L1 retrotransposition; Figure 4a Graph 3, 50μM, Replicates 1-4, 0μM average 17.91",3.679 and 3.508 and 3.347 and 3.332
same,Effect on L1 retrotransposition,L1 retrotransposition; HeLa cells,some activity in the retrotransposition assay
same,"Percent APE1 activity, average","APE1 [3]; 250 µM, Supplementary Fig. 6b, n=3",114.2%
same,"Percent APE1 activity, replicates","APE1 [3]; 250 µM, Supplementary Fig. 6b, replicates 1-3",123.394% and 115.312% and 103.88%
same,"APE1 percent activity, Replicate 1","APE1 [3]; compound at 25 μM, Replicate 1",105.329%
same,"APE1 percent activity, Replicate 2","APE1 [3]; compound at 25 μM, Replicate 2",115.007%
same,"APE1 percent activity, Replicate 3","APE1 [3]; compound at 25 μM, Replicate 3",106.871%
same,"APE1 percent activity, average","APE1 [3]; compound at 25 μM, average of 3 replicates",109.069%
same,activity at 25 µM,"APE1 [3]; inhibitors at 25 μM, relative to 0 μM inhibitor control, mean ± s.d., 3 independent experiments",109 ± 5.2%
same,"Inhibition of DNA damage, full-length L1 experiments",[7],best inhibition
same,"PrestoBlue (viability), average","HeLa Tet-On cells; 48 h, 50 μM",5.992
same,"Expression of IFN-I gene set and aging gene set (RNA-seq, GSEA)",[8],decreased expression
same,"EN activity, percent of no inhibitor control","[4]; [Inhibitor] 5 μM, technical replicates 1-3, Fig. 2b source data, 5 µM",77.035% and 74.8653%
same,remaining activity at 5 µM,"[4]; [Inhibitor] 5 μM, technical replicates 1-3, Fig. 2b source data, read-out: EN activity, percent of no inhibitor control",78.7%
same,"EN activity, percent of no inhibitor control","[4]; [Inhibitor] 25 μM, technical replicates 1-3, Fig. 2b source data, 25 µM",81.0185% and 81.0517%
same,remaining activity at 25 µM,"[4]; [Inhibitor] 25 μM, technical replicates 1-3, Fig. 2b source data, read-out: EN activity, percent of no inhibitor control",80.7%
same,"EN activity, percent of no inhibitor control","[4]; [Inhibitor] 50 μM, technical replicates 1-3, Fig. 2b source data, 50 µM",93.0387% and 96.7449% and 76.3025%
same,"EN activity, percent of no inhibitor control","[4]; [Inhibitor] 100 μM, technical replicates 1-3, Fig. 2b source data, 100 µM",74.7453% and 98.1517% and 74.2286%
same,"EN activity, percent of no inhibitor control","[4]; [Inhibitor] 250 μM, technical replicates 1-3, Fig. 2b source data, 250 µM",79.2639% and 68.0005%
same,remaining activity at 250 µM,"[4]; [Inhibitor] 250 μM, technical replicates 1-3, Fig. 2b source data, read-out: EN activity, percent of no inhibitor control",61.9%
same,"EN activity, percent of no inhibitor control","[4]; [Inhibitor] 500 μM, technical replicates 1-3, Fig. 2b source data, 500 µM",55.3249% and 49.2356%
same,remaining activity at 500 µM,"[4]; [Inhibitor] 500 μM, technical replicates 1-3, Fig. 2b source data, read-out: EN activity, percent of no inhibitor control",62.1%
same,"EN activity, percent of no inhibitor control","[4]; [Inhibitor] 750 μM, technical replicates 1-3, Fig. 2b source data, 750 µM",29.8392% and 18.9487%
same,remaining activity at 750 µM,"[4]; [Inhibitor] 750 μM, technical replicates 1-3, Fig. 2b source data, read-out: EN activity, percent of no inhibitor control",18%
same,"EN activity, percent of no inhibitor control","[4]; [Inhibitor] 1000 μM, technical replicates 1-3, Fig. 2b source data, 1000 µM",13.0331% and 19.9958%
same,remaining activity at 1000 µM,"[4]; [Inhibitor] 1000 μM, technical replicates 1-3, Fig. 2b source data, read-out: EN activity, percent of no inhibitor control",20.4%
same,"EN activity, percent of no inhibitor control","[4]; [Inhibitor] 1500 μM, technical replicates 1-3, Fig. 2b source data, 1500 µM",5.3699% and 4.215%
same,remaining activity at 1500 µM,"[4]; [Inhibitor] 1500 μM, technical replicates 1-3, Fig. 2b source data, read-out: EN activity, percent of no inhibitor control",4.91%
